In PubChem BioAssay AID248 (DTP/NCI, 2004) one finds T/C data, which are given here for 15 compounds.

“And” between values parts separate entries of the source, which are not always exact repeats. Identical values can stand only once. Toxic doses and inconclusive results are not listed.

The test system of the assay is L1210 leukemia ip in BDF1 mice, survival T/C. In words: NCI In Vivo Anticancer Drug Screen. Data for tumor model L1210 Leukemia (intraperitoneal) in B6D2F1 (BDF1) mice. The note with it: endpoint: mean survival time, higher = longer survival. In a few lines:
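Antitumor effect is assessed in tumor-bearing animals. Survival in the compound arm is compared with a vehicle-dosed control arm and expressed as their quotient.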

Setting [1] is: dose: 100.0 mg/kg/injection, schedule: Q01DX009 (ip), vehicle: Klucel (hydroxypropylcellulose) (HPC).
Where [2] appears, read: dose: 100.0 mg/kg/injection, schedule: Q04DX003 (ip), vehicle: Klucel (hydroxypropylcellulose) (HPC).
[3] abbreviates: dose: 200.0 mg/kg/injection, schedule: Q01DX009 (ip), vehicle: Klucel (hydroxypropylcellulose) (HPC).
The mark [4] stands for this setting: dose: 200.0 mg/kg/injection, schedule: Q04DX003 (ip), vehicle: Klucel (hydroxypropylcellulose) (HPC).
[5] abbreviates: dose: 400.0 mg/kg/injection, schedule: Q01DX009 (ip), vehicle: Klucel (hydroxypropylcellulose) (HPC).
Where [6] appears, read: dose: 400.0 mg/kg/injection, schedule: Q04DX003 (ip), vehicle: Klucel (hydroxypropylcellulose) (HPC).
Setting [7] is: dose: 100.0 mg/kg/injection, schedule: Q01DX009 (ip), vehicle: saline with Tween-80.
Setting [8] is: dose: 200.0 mg/kg/injection, schedule: Q01DX009 (ip), vehicle: saline with Tween-80.
Where [9] appears, read: dose: 400.0 mg/kg/injection, schedule: Q01DX009 (ip), vehicle: saline with Tween-80.
Setting [10] is: dose: 100.0 mg/kg/injection, schedule: Q01DX001 (ip), vehicle: saline.

Turning to `CN(C)CC(=O)c1ccc(O)c(O)c1`, the T/C (dose: 29.5 mg/kg/injection, schedule: Q#A X Z (ip), vehicle: saline) was 123 % of control; the T/C (dose: 44.5 mg/kg/injection, schedule: Q#A X Z (ip), vehicle: saline) was 124 % of control; the T/C (dose: 50.0 mg/kg/injection, schedule: Q01DX Z (ip), vehicle: saline) was 109 % of control; the T/C (dose: 75.0 mg/kg/injection, schedule: Q01DX010 (ip), vehicle: saline) was 112 % of control and 114 % of control; the T/C (dose: 75.0 mg/kg/injection, schedule: Q01DX Z (ip), vehicle: carboxymethylcellulose (CMC)) was 110 % of control; the T/C (dose: 75.0 mg/kg/injection, schedule: Q01DX Z (ip), vehicle: clinical formulation) is 110 % of control and 113 % of control. Moreover, the T/C was 112 % of control (dose: 75.0 mg/kg/injection, schedule: Q01DX Z (ip), vehicle: water); 116 % of control (dose: 100.0 mg/kg/injection, schedule: Q01DX Z (ip), vehicle: saline); 124 % of control (dose: 133.0 mg/kg/injection, schedule: Q01DX Z (ip), vehicle: saline); 112 % of control (dose: 150.0 mg/kg/injection, schedule: Q01DX Z (ip), vehicle: carboxymethylcellulose (CMC)); 116 % of control (dose: 150.0 mg/kg/injection, schedule: Q01DX Z (ip), vehicle: clinical formulation); 124 % of control (dose: 150.0 mg/kg/injection, schedule: Q01DX Z (ip), vehicle: water). The T/C is 118 % of control (dose: 150.0 mg/kg/injection, schedule: Q#A X Z (ip), vehicle: saline); 104 % of control (dose: 200.0 mg/kg/injection, schedule: Q01DX007 (iv), vehicle: saline); 108 % of control (dose: 200.0 mg/kg/injection, schedule: Q01DX Z (sc), vehicle: saline); 100 % of control (dose: 200.0 mg/kg/injection, schedule: Q## X Z (ip), vehicle: saline); 123 % of control (dose: 266.0 mg/kg/injection, schedule: Q03DX Z (ip), vehicle: saline); 95 % of control (dose: 300.0 mg/kg/injection, schedule: Q01DX007 (iv), vehicle: saline). For the same compound, the T/C reads like this: (dose: 300.0 mg/kg/injection, schedule: Q01DX Z (ip), vehicle: clinical formulation) 118 % of control; (dose: 300.0 mg/kg/injection, schedule: Q01DX Z (ip), vehicle: water) 116 % of control; (dose: 300.0 mg/kg/injection, schedule: Q01DX Z (sc), vehicle: saline) 108 % of control; (dose: 300.0 mg/kg/injection, schedule: Q## X Z (ip), vehicle: saline) 100 % of control; (dose: 400.0 mg/kg/injection, schedule: Q03DX Z (ip), vehicle: saline) 117 % of control; (dose: 450.0 mg/kg/injection, schedule: Q01DX Z (ip), vehicle: saline) 153 % of control. Besides, the T/C is 103 % of control (dose: 450.0 mg/kg/injection, schedule: Q01DX Z (sc), vehicle: saline); 100 % of control (dose: 450.0 mg/kg/injection, schedule: Q## X Z (ip), vehicle: saline); 94 % of control (dose: 532.0 mg/kg/injection, schedule: Q01DX Z (oral), vehicle: saline); 102 % of control and 112 % of control (2×) (dose: 600.0 mg/kg/injection, schedule: Q03DX Z (ip), vehicle: saline); 115 % of control (dose: 622.0 mg/kg/injection, schedule: Q07DX Z (ip), vehicle: saline); 116 % of control (dose: 675.0 mg/kg/injection, schedule: Q01DX Z (sc), vehicle: saline). For the same compound, the T/C reads like this: (dose: 675.0 mg/kg/injection, schedule: Q## X Z (ip), vehicle: saline) 102 % of control; (dose: 800.0 mg/kg/injection, schedule: Q01DX Z (ip), vehicle: carboxymethylcellulose (CMC)) 102 % of control; (dose: 800.0 mg/kg/injection, schedule: Q01DX Z (oral), vehicle: saline) 101 % of control and 88 % of control; (dose: 933.0 mg/kg/injection, schedule: Q07DX Z (ip), vehicle: saline) 104 % of control; (dose: 1200.0 mg/kg/injection, schedule: Q01DX Z (oral), vehicle: saline) 102 % of control and 106 % of control; (dose: 1400.0 mg/kg/injection, schedule: Q07DX Z (ip), vehicle: saline) 113 % of control. Moreover, the T/C (dose: 1800.0 mg/kg/injection, schedule: Q01DX Z (oral), vehicle: saline) was 100 % of control.
`CN(C)c1cc2c(cc1[N+](=O)[O-])-c1ccccc1C2=O`: the T/C (dose: 100.0 mg/kg/injection, schedule: Q04DX003 (ip), vehicle: saline with Tween-80) is 100 % of control; the T/C (dose: 200.0 mg/kg/injection, schedule: Q04DX003 (ip), vehicle: saline with Tween-80) is 100 % of control; the T/C (dose: 400.0 mg/kg/injection, schedule: Q04DX003 (ip), vehicle: saline with Tween-80) is 100 % of control.
Take `CCN(CC)CCOc1ccc(C(C)(C)c2ccc(OCCN(CC)CC)cc2)cc1`: the T/C by setting is: (dose: 100.0 mg/kg/injection, schedule: Q04DX002 (ip), vehicle: saline) 108 % of control; (dose: 200.0 mg/kg/injection, schedule: Q04DX002 (ip), vehicle: saline) 108 % of control.
For the compound `Nc1ccc(C(=O)Oc2ccc([N+](=O)[O-])cc2)c(O)c1`, the T/C under setting [1] is 95 % of control; the T/C under setting [2] is 100 % of control; the T/C under setting [3] is 97 % of control; the T/C under setting [4] was 88 % of control; the T/C under setting [5] is 87 % of control; the T/C under setting [6] is 96 % of control.
For the compound `O=C(c1ccccc1)c1cn(C2CCCCC2)c(-c2ccccc2)c1NC1CCCCC1`, the T/C by setting is: under setting [7], 93 % of control; under setting [8], 93 % of control; under setting [9], 102 % of control.
For the compound `O=C(Nc1cccc(Cl)c1Cl)N1CCN(c2ccccc2)CC1`, the T/C is 92 % of control under setting [1], 96 % of control under setting [3] and 97 % of control under setting [5].
Regarding `ClCc1ccc(CCl)c2ccccc12`, the T/C is, setting by setting: under setting [2], 104 % of control; under setting [4], 105 % of control; under setting [6], 100 % of control.
On to `CCOC(=O)c1[nH]c(C)c(C(C)=O)c1C`, for which the T/C under setting [7] was 92 % of control, the T/C under setting [8] was 97 % of control and the T/C under setting [9] is 100 % of control.
As for `CCOC(=O)C1(C(=O)OCC)CCC(OCC)N1C(=O)c1ccccc1[N+](=O)[O-]` (stereo unspecified), the T/C reads like this: (dose: 25.0 mg/kg/injection, schedule: Q04DX003 (ip), vehicle: Klucel (hydroxypropylcellulose) (HPC)) 94 % of control; (dose: 50.0 mg/kg/injection, schedule: Q04DX003 (ip), vehicle: Klucel (hydroxypropylcellulose) (HPC)) 99 % of control; under setting [2], 89 % of control.
As for `O=S1(=O)CCCCc2c1ccc1ccccc21`, the T/C is, setting by setting: under setting [10], 101 % of control; (dose: 200.0 mg/kg/injection, schedule: Q01DX001 (ip), vehicle: saline) 90 % of control; (dose: 400.0 mg/kg/injection, schedule: Q01DX001 (ip), vehicle: saline) 106 % of control.
Take `CC(C)(C)C(CCC(=O)O)CC(=O)O` (stereo unspecified): the T/C runs as follows: under setting [8], 90 % of control; under setting [9], 89 % of control.
As for `Cc1c2ccccc2c(C)c2c1c(F)cc1ccccc12`, for the setting “dose: 37.5 mg/kg/injection, schedule: Q01DX001 (ip), vehicle: Klucel (hydroxypropylcellulose) (HPC)”, the T/C is 120 % of control.
For the compound `c1cc2c3c(c1)[I+]c1cccc(c1-3)[I+]2`, the T/C is 112 % of control (dose: 50.0 mg/kg/injection, schedule: Q01DX001 (ip), vehicle: saline) and 116 % of control under setting [10].
Take `O=C(O)CC(CO)C(c1ccccc1)c1ccccc1` (stereo unspecified): the T/C reads like this: (dose: 100.0 mg/kg/injection, schedule: Q04DX002 (ip), vehicle: Klucel (hydroxypropylcellulose) (HPC)) 97 % of control; (dose: 200.0 mg/kg/injection, schedule: Q04DX002 (ip), vehicle: Klucel (hydroxypropylcellulose) (HPC)) 97 % of control.
In the case of `CCN(CC)c1ccc(C2NC(=O)c3ccccc3N2)cc1` (stereo unspecified), the T/C (dose: 50.0 mg/kg/injection, schedule: Q01DX009 (ip), vehicle: Klucel (hydroxypropylcellulose) (HPC)) is 106 % of control and 108 % of control; the T/C under setting [1] is 116 % of control; the T/C (dose: 150.0 mg/kg/injection, schedule: Q01DX009 (ip), vehicle: Klucel (hydroxypropylcellulose) (HPC)) was 104 % of control and 117 % of control.
